Consider 17 compounds from US20250154172A1, “PRMT5 INHIBITORS AND USES THEREOF” (Gilead Sciences, Inc., priority 2023, published 2025).

The structures appear in SMILES notation.

Usually CC50 stands for the concentration giving 50% cytotoxicity.

The experiment has as its system HCT116 MTAP-deleted cell lines. Briefly: Cell viability assay for HCT116 isogenic pair (CellTitre-Glo, 7 days). It is filed as cell-based. Particulars: Homo sapiens, HCT-116, 168 h, 7 days of treatment, cell line not given. As for the experimental part:
Control compounds were analyzed in parallel each time for quality control.
In Brief, on Day −1, a serial dilution of stock compounds in DMSO was performed using BioMek liquid handlers and dispensed using Echo acoustic dispenser into 384 well plates. Both tool compounds and sample compounds were spotted in the same plate for a dose response of PRMT5 inhibitors. Compound plates were stored as frozen until the cells were ready for seeding.
On Day 0, 100 HCT WT or HCT116 MTAP-deleted cells were seeded in compound-containing 384 well plates (50 μl per well) in RPMI 1640 media supplemented with 10% heat inactivated fetal bovine serum, Glutamax and penicillin streptomycin using EL460 liquid dispenser 5 μl cassette (BioTek, part no. 7170011). After equilibrating the plate in room temperature, the cells were incubated for 7 days inside the sealed incubator set at 37° C. with 90% humidity and 5% CO2.
On Day 7, the viability of cells was measured using a CTG assay kit (CellTitre-Glo; Promega cat no. G7573). Shortly, 40 μl per well of luminescent cell viability assay reagent were dispensed using EL460 liquid dispenser 5 μl cassette. CTG luminescence signal was measured using an EnVision plate reader (PerkinElmer) in accordance with manufacturer's instruction. The CCso values for each compound after 7 days of treatment were calculated using 4 parameter non-linear logistical curve fit.
For the cell viability assay ie CC50 shown in nM in Table 3.
In turn, `C[C@@H]1C[C@@H]2Oc3cc(C(F)(F)F)ccc3[C@@H]2N(C(=O)c2cc3c(cn2)nc(N)c2cnn(C)c23)C1` [Example Ca-17, (4-amino-1-methyl-1H-pyrazolo[4,3-c][1,7]naphthyridin-8-yl)((3R,4aS,9bS)-3-methyl-7-(trifluoromethyl)-3,4,4a,9b-tetrahydrobenzofuro[3,2-b]pyridin-1(2H)-yl)methanone] showed a cytotoxic concentration (CC50) of 7 nM.
Then `Cn1ncc2c(N)nc3cnc(C(=O)N4CCO[C@@H]5Cc6cc(Br)ccc6[C@@H]54)cc3c21` [Example Ca-33, (4-amino-1-methyl-1H-pyrazolo[4,3-c][1,7]naphthyridin-8-yl)((4aS,9aR)-7-bromo-2,3,9,9a-tetrahydroindeno[2,1-b][1,4]oxazin-4(4aH)-yl)methanone], with 9 nM; and `C[C@@H]1C[C@@H]2CCc3cc(C(F)(F)F)ccc3[C@@H]2N(C(=O)c2cc3c(cn2)nc(N)c2cnn(C)c23)C1` (racemic) [Example Ca-39, (Rac)-(4-amino-1-methyl-1H-pyrazolo[4,3-c][1,7]naphthyridin-8-yl)((3R,4aS,10bR)-3-methyl-8-(trifluoromethyl)-3,4,4a,5,6,10b-hexahydrobenzo[h]quinolin-1(2H)-yl)methanone], with 79 nM; and `[2H]C1([2H])CC[C@@H]2Oc3cc(C(F)(F)F)ccc3[C@@H]2N1C(=O)c1cc2c3c(c(N)nc2cn1)COC3` [Example Ca-48, (4-amino-1,3-dihydrofuro[3,4-c][1,7]naphthyridin-8-yl)((4aS,9bS)-7-(trifluoromethyl)-3,4,4a,9b-tetrahydrobenzofuro[3,2-b]pyridin-1(2H)-yl-2,2-d2)methanone], with 12 nM.
Then `C[C@@H]1C[C@@H]2CCc3cc(C(F)(F)F)ccc3[C@@H]2N(C(=O)c2cc3c4c(c(N)nc3cn2)COC4)C1` (racemic) [Example Ca-40, (Rac)-(4-amino-1,3-dihydrofuro[3,4-c][1,7]naphthyridin-8-yl)((3R,4aS,10bR)-3-methyl-8-(trifluoromethyl)-3,4,4a,5,6,10b-hexahydrobenzo[h]quinolin-1(2H)-yl)methanone], with 179 nM; and `Cn1ncc2c(N)nc3ccc(C(=O)N4CCO[C@@H]5Cc6cc(C(F)(F)F)ccc6[C@@H]54)cc3c21` (racemic) [Example Ca-11, (Rac)-(4-amino-1-methyl-1H-pyrazolo[4,3-c]quinolin-8-yl)(7-(trifluoromethyl)-2,3,9,9a-tetrahydroindeno[2,1-b][1,4]oxazin-4(4aH)-yl)methanone], with 65 nM.
Under `Cn1ncc2c(N)nc3cnc(C(=O)N4CCO[C@@H]5Cc6cc(C7CC7)ccc6[C@@H]54)cc3c21` [Example Ca-34, (4-amino-1-methyl-1H-pyrazolo[4,3-c][1,7]naphthyridin-8-yl)((4aS,9aR)-7-cyclopropyl-2,3,9,9a-tetrahydroindeno[2,1-b][1,4]oxazin-4(4aH)-yl)methanone] stands 62 nM.
In turn, `Cn1ncc2c(N)nc3cnc(C(=O)N4CCO[C@@H]5Cc6cc(OC(F)(F)F)ccc6[C@@H]54)cc3c21` [Example Ca-53, (4-amino-1-methyl-1H-pyrazolo[4,3-c][1,7]naphthyridin-8-yl)((4aS,9aR)-7-(trifluoromethoxy)-2,3,9,9a-tetrahydroindeno[2,1-b][1,4]oxazin-4(4aH)-yl)methanone] had a cytotoxic concentration (CC50) of 33 nM.
Under `Cn1ncc2c(N)nc3cnc(C(=O)N4CCC5CC4c4ccc(C(F)(F)F)cc45)cc3c21` (racemic) [Example Ca-14, (Rac)-(4-amino-1-methyl-1H-pyrazolo[4,3-c][1,7]naphthyridin-8-yl)((1R,5S)-7-(trifluoromethyl)-1,3,4,5-tetrahydro-2H-1,5-methanobenzo[c]azepin-2-yl)methanone] stands 16 nM; under `Cn1ncc2c(N)nc3cnc(C(=O)N4CCC[C@@H]5Oc6cc(OC(F)F)c(F)cc6[C@@H]54)cc3c21` (racemic) [Example Ca-21, (Rac)-(4-amino-1-methyl-11H-pyrazolo[4,3-c][1,7]naphthyridin-8-yl)(7-(difluoromethoxy)-8-fluoro-3,4,4a,9b-tetrahydrobenzofuro[3,2-b]pyridin-1(2H)-yl)methanone], 15 nM; under `C[C@@H]1CN(C(=O)c2cc3c(cn2)nc(N)c2cnn(C)c23)[C@H]2c3ccc(Br)c(F)c3C[C@H]2O1` (single isomer, unassigned) [Example Ca-30], 75 nM.
Then `Nc1nc2cnc(C(=O)N3CC[C@H]4C[C@@H]3c3c(Cl)cc(C(F)(F)F)cc3O4)cc2c2c1COC2` [Example Ca-60, (4-amino-1,3-dihydrofuro[3,4-c][1,7]naphthyridin-8-yl)((2S,6R)-7-chloro-9-(trifluoromethyl)-3,4-dihydro-2H-2,6-methanobenzo[b][1,5]oxazocin-5(6H)-yl)methanone], with 227 nM; and `Nc1nc2cnc(C(=O)N3CC[C@H]4C[C@@H]3c3c(F)cc(C(F)(F)F)cc3O4)cc2c2c1COC2` [Example Ca-59, (4-amino-1,3-dihydrofuro[3,4-c][1,7]naphthyridin-8-yl)((2S,6R)-7-fluoro-9-(trifluoromethyl)-3,4-dihydro-2H-2,6-methanobenzo[b][1,5]oxazocin-5(6H)-yl)methanone], with 17 nM; and `COc1ccc2c(c1)CO[C@H]1CCCN(C(=O)c3ccc4nc(N)c5cnn(C)c5c4c3)[C@@H]21` (racemic) [Example Ca-8, Rac-(4-amino-1-methyl-1H-pyrazolo[4,3-c]quinolin-8-yl)((4aS,10bS)-8-methoxy-2,3,4,4a,6,10b-hexahydro-1H-isochromeno[4,3-b]pyridin-1-yl)methanone], with 23 nM.
Take `Cn1ncc2c(N)nc3cnc(C(=O)N4CCC[C@@H]5Cc6cc(C(F)(F)F)ccc6[C@@H]54)cc3c21` (racemic) [Example Ca-24, (Rac)-(4-amino-1-methyl-1H-pyrazolo[4,3-c][1,7]naphthyridin-8-yl)((4aR,9bR)-7-(trifluoromethyl)-2,3,4,4a,5,9b-hexahydro-1H-indeno[1,2-b]pyridin-1-yl)methanone]: the half-maximal cytotoxic concentration (CC50) was determined as 42 nM.
Under `Cn1ncc2c(N)nc3cc(F)c(C(=O)N4CCC[C@@H]5Oc6cc(-c7cnn(C(F)(F)F)c7)ccc6[C@@H]54)cc3c21` [Example Ca-56, (4-amino-7-fluoro-1-methyl-1H-pyrazolo[4,3-c]quinolin-8-yl)((4aS,9bS)-7-(1-(trifluoromethyl)-1H-pyrazol-4-yl)-3,4,4a,9b-tetrahydrobenzofuro[3,2-b]pyridin-1(2H)-yl)methanone] stands 4 nM; under `CN(C(=O)c1cc2c(cn1)nc(N)c1cnn(C)c12)[C@H]1c2ccc(C(F)(F)F)cc2[C@@H]2C[C@@H]21` (single isomer, unassigned) [Example Ca-25], 43 nM.
